These results are taken from patent US12325725B2, “Cyclin-dependent kinase degraders and methods of use” (DANA-FARBER CANCER INSTITUTE, INC., priority 2018, dated 2025).

pIC50: −log10 of the molar value.

In one test the target is T1, CDK8 (Homo sapiens (Human), UniProt P49336). In words: LanthaScreen Eu Kinase Binding Assay (competitive kinase binding assay). Particulars: Targeting Ligands of Table 1; displacing the Tracer from the target kinase; read-out: Enzyme IC50. As for the experimental part: The biological activities of the compounds of the present application can be assessed through a variety of methods known in the art. For example, a kinase competitive binding assay may be used to determine the activity of the compounds of the present application to bind to […]. […] The changes in the signal produced by the reporting ligand when the compound is present relative when the compound is absent are recorded, which are calculated to provide the IC50 of the compound. Compounds of the present application were tested in a competitive kinase binding assay by using commercially available assay system. For example, LanthaScreen® Eu Kinase Binding Assay (Invitrogen™) was used to measure the IC50 of the compounds of the present application in displacing the Tracer from binding to the target kinase, by following the assay protocol from Invitrogen™.
Target sequence in this assay (P49336 whole entry, looked up): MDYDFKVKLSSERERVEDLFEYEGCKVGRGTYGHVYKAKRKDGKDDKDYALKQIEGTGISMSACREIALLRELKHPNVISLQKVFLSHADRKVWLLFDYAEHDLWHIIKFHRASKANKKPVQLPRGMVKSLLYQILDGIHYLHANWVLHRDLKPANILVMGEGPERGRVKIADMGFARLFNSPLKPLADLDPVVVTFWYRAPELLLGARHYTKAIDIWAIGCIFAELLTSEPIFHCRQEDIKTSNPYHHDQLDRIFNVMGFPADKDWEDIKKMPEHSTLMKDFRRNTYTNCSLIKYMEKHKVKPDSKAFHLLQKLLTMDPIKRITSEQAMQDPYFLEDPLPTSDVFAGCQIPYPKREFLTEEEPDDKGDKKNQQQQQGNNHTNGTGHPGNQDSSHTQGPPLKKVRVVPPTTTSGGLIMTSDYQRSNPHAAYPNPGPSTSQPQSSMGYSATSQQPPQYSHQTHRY
Target sequence in this assay (P24863 whole entry partner, looked up): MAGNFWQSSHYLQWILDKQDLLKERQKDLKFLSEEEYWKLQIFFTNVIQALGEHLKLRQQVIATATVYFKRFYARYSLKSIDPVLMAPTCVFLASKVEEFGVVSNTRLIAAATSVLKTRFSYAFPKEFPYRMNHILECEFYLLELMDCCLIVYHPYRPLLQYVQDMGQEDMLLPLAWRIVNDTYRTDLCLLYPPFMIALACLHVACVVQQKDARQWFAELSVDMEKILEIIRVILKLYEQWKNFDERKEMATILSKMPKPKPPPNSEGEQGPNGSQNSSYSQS
On to `CN(C)[C@H]1CC[C@@]2(C)C(=CCC3[C@@H]4CC[C@H](c5ccc6ccncc6c5)[C@@]4(C)CC[C@@H]32)C1` (stereo in doubt) [Compound 33, (3S,8R,9S,10R,13S,14S)-17-(isoquinolin-7-yl)-N,N,10,13-tetramethyl-2,3,4,7,8,9,10,11,12,13,14,15,16,17-tetradecahydro-1H-cyclopenta[a]phenanthren-3-amine], for which the pIC50 (commonly the IC50 on a negative log10 scale, so that one unit is a factor of ten) is more than 7.00.

Turning to `C[C@]12CC[C@H](O)CC1=CC[C@@H]1[C@@H]2CC[C@]2(C)C(c3ccc4ccncc4c3)=CC[C@@H]12` [Compound 1, (3S,8R,9S,10R,13S,14S)-17-(isoquinolin-7-yl)-10,13-dimethyl-2,3,4,7,8,9,10,11,12,13,14,15-dodecahydro-1H-cyclopenta[a]phenanthren-3-ol], the pIC50 is 6.70 to 7.00.

Consider `C[C@]12CC[C@H](O)C[C@@H]1CC[C@@H]1[C@@H]2CC[C@]2(C)C(c3ccc4ccncc4c3)=CC[C@@H]12` [Compound 2], for which the pIC50 was 5.70 to 6.15.

Turning to `C[C@]12CC[C@H](O)CC1=CC[C@@H]1[C@@H]2CC[C@]2(C)C(c3ccc4cnncc4c3)=CC[C@@H]12` [Compound 3], the pIC50 is less than 5.22.

Take `C[C@]12CC[C@H](O)CC1=CC[C@@H]1[C@@H]2CC[C@]2(C)C(c3ccc4nc(N)ncc4c3)=CC[C@@H]12` [Compound 4]: the pIC50 is 5.22 to 5.70.

With `C[C@]12CC[C@H](O)CC1=CC[C@@H]1[C@@H]2CC[C@]2(C)C(c3ccc4[nH]ncc4c3)=CC[C@@H]12` [Compound 6], the pIC50 was less than 5.22.

Consider `C[C@]12CC[C@H](O)CC1=CC[C@@H]1[C@@H]2CC[C@]2(C)C(c3ccc4cn[nH]c4c3)=CC[C@@H]12` [Compound 7], for which the pIC50 is less than 5.22.

Take `C[C@]12CC[C@H]3[C@@H](CC=C4C[C@@H](O)CC[C@@]43C)[C@@H]1CC[C@@H]2c1ccc2ccncc2c1` [Compound 8a, (3S,8S,9S,10R,13S,14S,17S)-17-(isoquinolin-7-yl)-10,13-dimethyl-2,3,4,7,8,9,10,11,12,13,14,15,16,17-tetradecahydro-1H-cyclopenta[a]phenanthren-3-ol]: the pIC50 was more than 7.00.

As for `C[C@]12CC[C@H](O)C[C@@H]1CC[C@@H]1[C@@H]2CC[C@]2(C)[C@@H](c3ccc4ccncc4c3)CC[C@@H]12` [Compound 8b], the pIC50 was 6.52 to 6.70.

For the compound `C[C@]12CC[C@H]3[C@@H](CC=C4C[C@@H](O)CC[C@@]43C)[C@@H]1CC[C@@H]2c1ccc2cnncc2c1` [Compound 9], the pIC50 was less than 5.22.

`C[C@]12CC[C@H]3[C@@H](CC=C4C[C@@H](O)CC[C@@]43C)[C@@H]1CC[C@@H]2c1ccc2nc(N)ncc2c1` [Compound 10]: the pIC50 was 6.70 to 7.00.

On to `C[C@]12CC[C@H]3[C@@H](CC=C4C[C@@H](O)CC[C@@]43C)[C@@H]1CC[C@@H]2c1ccc2c(N)n[nH]c2c1` [Compound 11], for which the pIC50 is 6.15 to 6.52.

Consider `C[C@]12CC[C@H]3[C@@H](CC=C4C[C@@H](O)CC[C@@]43C)[C@@H]1CC[C@@H]2c1ccc2[nH]ncc2c1` [Compound 12], for which the pIC50 was less than 5.22.

Regarding `C[C@]12CC[C@H]3[C@@H](CC=C4C[C@@H](O)CC[C@@]43C)[C@@H]1CC[C@@H]2c1ccc2cn[nH]c2c1` [Compound 13], the pIC50 was less than 5.22.

Turning to `C[C@]12CC[C@H]3[C@@H](CC=C4C[C@@H](O)CC[C@@]43C)[C@@H]1CC[C@@H]2c1ccc2cnccc2c1` [Compound 14], the pIC50 was 5.22 to 5.70.

In the case of `CN(C)[C@H]1CC[C@@]2(C)[C@@H](CC[C@@H]3[C@@H]2CC[C@]2(C)[C@@H](c4ccc5ccncc5c4)CC[C@@H]32)C1` [Compound 23, (3S,8R,9S,10S,13S,14S,17S)-(isoquinolin-7-yl)-N,N,10,13-tetramethylhexadecahydro-1H-cyclopenta[a]phenanthren-3-amine], the pIC50 is more than 7.00.

As to `CN(C)[C@@H]1CC[C@@]2(C)[C@@H](CC[C@@H]3[C@@H]2CC[C@]2(C)C(c4ccc5ccncc5c4)=CC[C@@H]32)C1` [Compound 24], the pIC50 is 6.52 to 6.70.

As to `CN(C)[C@@H]1CC[C@@]2(C)[C@@H](CC[C@@H]3[C@@H]2CC[C@]2(C)[C@@H](c4ccc5ccncc5c4)CC[C@@H]32)C1` [Compound 25], the pIC50 is more than 7.00.

Take `C[C@]12CC[C@H](n3ccnn3)C[C@@H]1CC[C@@H]1[C@@H]2CC[C@]2(C)[C@@H](c3ccc4ccncc4c3)CC[C@@H]12` [Compound 39, 7-((3S,8R,9S,10S,13S,14S,17S)-10,13-dimethyl-3-(1H-1,2,3-triazol-1-yl)hexadecahydro-1H-cyclopenta[a]phenanthren-17-yl)isoquinoline]: the pIC50 is more than 7.00.

As for `CC(=O)N(C)[C@H]1CC[C@@]2(C)[C@@H](CC[C@@H]3[C@@H]2CC[C@]2(C)[C@@H](c4ccc5ccncc5c4)CC[C@@H]32)C1` [Compound 47, N-((3S,8R,10S,13S,14S,17S)-17-(isoquinolin-7-yl)-10,13-dimethylhexadecahydro-1H-cyclopenta[a]phenanthren-3-yl)-N-methylacetamide], the pIC50 is more than 7.00.

The same test, now with this note: bifunctional compounds; displacing the Tracer from the target kinase; read-out: Enzyme IC50.
Regarding `CN(C(=O)CCOCCOCCOCCOCCNc1cccc2c1C(=O)N(C1CCC(=O)NC1=O)C2=O)[C@H]1CC[C@]2(C)C3CC[C@]4(C)[C@@H](c5ccc6ccncc6c5)CC[C@H]4C3CC[C@H]2C1` (stereo partly drawn) [Compound I-1, 1-((2-(2,6-dioxopiperidin-3-yl)-1,3-dioxoisoindolin-4-yl)amino)-N-((3S,5S,1&S,13S,14S,17S)-17-(isoquinolin-7-yl)-10,13-dimethylhexadecahydro-1H-cyclopenta[a]phenanthren-3-yl)-N-methyl-3,6,9,12-tetraoxapentadecan-15-amide], the pIC50 is 6.70 to 7.00.

With `CN(C(=O)CCOCCOCCNc1cccc2c1C(=O)N(C1CCC(=O)NC1=O)C2=O)[C@H]1CC[C@]2(C)C3CC[C@]4(C)[C@@H](c5ccc6ccncc6c5)CC[C@H]4C3CC[C@H]2C1` (stereo partly drawn) [Compound I-2, 3-(2-(2-((2-(2,6-dioxopiperidin-3-yl)-1,3-dioxoisoindolin-4-yl)amino)ethoxy)ethoxy)-N-((3S,10S,17S)-17-(isoquinolin-7-yl)-10,13-dimethylhexadecahydro-1H-cyclopenta[a]phenanthren-3-yl)-N-methylpropanamide], the pIC50 is 6.70 to 7.00.

In the case of `CN(C(=O)CCOCCOCCNc1cccc2c1C(=O)N(C1CCC(=O)NC1=O)C2=O)[C@H]1CC[C@@]2(C)C(CCC3C4CC[C@H](c5ccc6ccncc6c5)C4(C)CCC32)C1` (stereo partly drawn) [Compound I-3, 3-(2-(2-((2-(2,6-dioxopiperidin-3-yl)-1,3-dioxoisoindolin-4-yl)amino)ethoxy)ethoxy)-N-((3S,10S,17S)-17-(isoquinolin-7-yl)-10,13-dimethylhexadecahydro-1H-cyclopenta[a]phenanthren-3-yl)-N-methylpropanamide], the pIC50 was 6.52 to 6.70.

Take `CN1C(=O)CCC(N2C(=O)c3cccc(NCCOCCOCCOCCOCCC(=O)N(C)[C@H]4CC[C@]5(C)C6CC[C@]7(C)[C@@H](c8ccc9ccncc9c8)CC[C@H]7C6CC[C@H]5C4)c3C2=O)C1=O` (stereo partly drawn) [Compound I-5, N-((3S,5S,10S,13S,14S,17S)-17-(isoquinolin-7-yl)-10,13-dimethylhexadecahydro-1H-cyclopenta[a]phenanthren-3-yl)-N-methyl--((2-(1-methyl-2,6-dioxopiperidin-3-yl)-1,3-dioxoisoindolin-4-yl)amino)-3,6,9,12-tetraoxapentadecan-15-amide]: the pIC50 was 6.15 to 6.52.

The target of another test is T1, CDK8.
Assay: not given
The settings on record: cited from earlier work.
Target sequence in this assay (P49336 whole entry, looked up, species assumed): as the sequence (P49336 whole entry, looked up) above
Target sequence in this assay (P24863 whole entry partner, looked up, species assumed): as the sequence (P24863 whole entry partner, looked up) above
As to `CN(C)[C@H]1C[C@@]23CC[C@@]4(O2)C(=CC[C@]2(C)C(c5ccc6ccncc6c5)=CC[C@H]24)C=C3[C@@H](O)[C@@H]1O` [DCA, dehydrocortistatin A, reference compound], the pIC50 is 7.77.

Another test relates to pS727-STAT1 (CDK8 substrate) in HepG2 cells. In words: Western blot of S727-STAT1 phosphorylation in IFNγ-treated HepG2 cells. It counts as cell-based. The settings on record: 18 h with IFNγ, Compound 33 at 0.5, 1, 5 μM, DCA at 0.1, 1 μM. Here is the method:
FIG. 4 is a western blot illustrating inhibition of phosphorylation of S727-STAT1, a known CDK8 substrate, to form pS727-STAT1. pS727-STAT1 and total STAT1 were from HepG2 cells independently treated for 18 h with interferon gamma (IFNγ) and 0.5 μM, 1 μM, or 5 μM Compound 33, or with IFNγ and 0.1 μM or 1 μM dehydrocortistatin A (“DCA”).
Background: A western blot detects proteins with antibodies after separation by electrophoresis.
Turning to `CN(C)[C@H]1CC[C@@]2(C)C(=CCC3[C@@H]4CC[C@H](c5ccc6ccncc6c5)[C@@]4(C)CC[C@@H]32)C1` (stereo in doubt) [Compound 33, (3S,8R,9S,10R,13S,14S)-17-(isoquinolin-7-yl)-N,N,10,13-tetramethyl-2,3,4,7,8,9,10,11,12,13,14,15,16,17-tetradecahydro-1H-cyclopenta[a]phenanthren-3-amine], the “inhibition of S727 phosphorylation (pS727-STAT1 vs total STAT1, western blot)” value is recorded as “dose-dependent inhibition”.

With `CN(C)[C@H]1C[C@@]23CC[C@@]4(O2)C(=CC[C@]2(C)C(c5ccc6ccncc6c5)=CC[C@H]24)C=C3[C@@H](O)[C@@H]1O` [DCA, dehydrocortistatin A, reference compound], the “inhibition of S727 phosphorylation (pS727-STAT1 vs total STAT1, western blot)” value is “dose-dependent inhibition”.
